Patent publication US10631540B2, “Plant disease control composition, and plant disease control method” (Sumitomo Chemical Company, Limited, priority 2015, dated 2020)

Experiments:
[1] = test system: Pythium damping-off pathogen (Pythium ultimum); assay: Soybean seed treatment test against Pythium damping-off (Test Example 2); assay type: in vivo; conditions: soybean (Hatayutaka) seed treatment; dose rate gai/100 kg seed where present: ethaboxam 3.75, metalaxyl 1.0, oxathiapiprolin 3.75; grown 15° C. 5 days then 25° C. 10 days
Method: An acetone solution containing the compounds was prepared such that the amounts of compounds to be treated for seeds were set to the dose rate listed in Table 2. 10 g of seeds of soybean (Hatayutaka) and 80 μl of the acetone solution were added to a plastic container, the container was covered with a lid and then shaken, and then the seeds taken out of the container were left overnight, thereby obtaining treated seeds. A plastic pot was filled with culture soil, and the treated seeds were sowed and then were covered with culture soil mixed with seeds of grass turf which was infected with Pythium damping-off pathogen (Pythium ultimum). After irrigation, the seeds were grown at 15° C. for 5 days and then grown at 25° C. for 10 days. This area was set to a treated area. Further, soybeans were grown in the same manner as in the treated area except that a chemical agent was not applied to the seeds. This area was set to a non-treated area. The incidence of disease of plants in the treated area and the non-treated area were calculated using the above-described “Equation 1”. The control values were calculated using the above-described “Equation 2”.

[2] = test system: Pythium damping-off pathogen (Pythium irregulare); assay: Soybean seed treatment test against Pythium damping-off (Test Example 1); assay type: in vivo; conditions: soybean (Hatayutaka) seed treatment; dose rate gai/100 kg seed where present: ethaboxam 3.75, metalaxyl 1.0, oxathiapiprolin 3.75; grown 15° C. 5 days then 25° C. 10 days
Method: An acetone solution containing the compounds was prepared such that the amounts of compounds to be treated for seeds were set to the dose rate listed in Table 1. 10 g of seeds of soybean (Hatayutaka) and 80 μl of the acetone solution were added to a plastic container, the container was covered with a lid and then shaken, and then the seeds taken out of the container were left overnight, thereby obtaining treated seeds. A plastic pot was filled with culture soil, and the treated seeds were sowed and then were covered with culture soil mixed with seeds of grass turf which was infected with Pythium damping-off pathogen (Pythium irregulare). After irrigation, the seeds were grown at 15° C. for 5 days and then grown at 25° C. for 10 days. This area was set to a treated area. Further, soybeans were grown in the same manner as in the treated area except that a chemical agent was not applied to the seeds. This area was set to a non-treated area. The incidence of disease of plants in the treated area and the non-treated area were calculated using the following “Equation 1”. The control values were calculated using the following “Equation 2”. […] A: Incidence of disease of plants of non-treated area B: Incidence of disease of plants of treated area

Row | Structure (SMILES) | Control value (%) [1] | Control value (%) [2]
1 | Cc1cc(C(F)(F)F)nn1CC(=O)N1CCC(c2nc(C3=NOC(c4c(F)cccc4F)C3)cs2)CC1 (stereo not drawn) [Oxathiapiprolin, oxathiapiprolin] | 14% | 6%
2 | CCNc1nc(CC)c(C(=O)NC(C#N)c2cccs2)s1 (stereo not drawn) [Ethaboxam, ethaboxam] | 14% | 9%
3 | COCC(=O)N(c1c(C)cccc1C)C(C)C(=O)OC (racemic) [Metalaxyl, metalaxyl] | 0% | 6%
